Data on two molecules can be found in ChEMBL document CHEMBL4834431, “Design of Dimeric Bile Acid Derivatives as Potent and Selective Human NTCP Inhibitors” (J Med Chem, 2021).

Active and inactive are the calls of the source. The rule behind the calls is not given here.

For data set [1], the system named is Hepatitis B virus. The data set can be described thus: Antiviral activity against HBV infected in human HepG2-NTCP cells assessed as reduction in HBeAg secretion incubated for 24 hrs followed replacement with fresh medium and measured at day 5 post infection by ELISA. In kind it is functional, organism-based. Background: An ELISA detects its analyte on a solid surface through an enzyme-linked reagent.

Data set [2] has as its system Hepatitis B virus. The data set is described as follows: Antiviral activity against HBV infected in human HepG2-NTCP cells assessed as reduction in HBeAg secretion at 111 to 1000 nM incubated for 24 hrs followed by replacement with fresh medium and measured at day 5 post infection by ELISA. In kind it is functional, organism-based. The settings on record: dose 111-1000 nM.

For data set [3], the system named is Hepatitis B virus. The data set is described as follows: Antiviral activity against HBV infected in human HepG2-NTCP cells assessed as reduction in intracellular HBV RNA level at 1 uM by qPCR analysis. In kind it is functional, organism-based. On the technique in general: Real-time PCR tracks product formation cycle by cycle.
Data set [4] concerns Hepatitis B virus. The data set can be described thus: Antiviral activity against HBV infected in human HepG2-NTCP cells assessed as reduction in intracellular accumulation of HBcAg at 1 uM by immunostaining based fluorescence microscopic analysis. In kind it is functional, organism-based.
The subject of data set [5] is Hepatitis B virus. The data set can be described thus: Antiviral activity against HBV infected in human HepG2-NTCP cells assessed as reduction in intracellular accumulation of HBsAg at 1 uM by immunostaining based fluorescence microscopic analysis. In kind it is functional, organism-based.
The next data set relates to Hepatitis delta virus. The data set is described as follows: Antiviral activity against HDV infected in human HepG2-NTCP cells assessed as reduction in intranuclear accumulation of HDV delta antigen at 5 uM incubated for 24 hrs followed by replacement with fresh medium and measured at day 5 post infection by DAPI staining based confocal microscopic analysis (reference value: 12.1 %). In kind it is functional. More on the design: scale not given: the % may be the effect or the level left.

The subject of data set [6] is Hepatitis B virus. The data set is described as follows: Antiviral activity against HBV infected in human HepG2-NTCP cells assessed as reduction in HBeAg secretion at 1 uM preincubated with compound followed by viral infection by ELISA. In kind it is functional, organism-based.
Data set [7] has as its system Hepatitis B virus. The data set can be described thus: Antiviral activity against HBV infected in human HepG2-NTCP cells assessed as reduction in HBeAg secretion at 1 uM pre-infected with virus followed by compound addition by ELISA. In kind it is functional, organism-based.
For data set [8], the target named is T1, Hepatic sodium/bile acid cotransporter (Homo sapiens, UniProt Q14973).
T1 sequence (Q14973 whole entry): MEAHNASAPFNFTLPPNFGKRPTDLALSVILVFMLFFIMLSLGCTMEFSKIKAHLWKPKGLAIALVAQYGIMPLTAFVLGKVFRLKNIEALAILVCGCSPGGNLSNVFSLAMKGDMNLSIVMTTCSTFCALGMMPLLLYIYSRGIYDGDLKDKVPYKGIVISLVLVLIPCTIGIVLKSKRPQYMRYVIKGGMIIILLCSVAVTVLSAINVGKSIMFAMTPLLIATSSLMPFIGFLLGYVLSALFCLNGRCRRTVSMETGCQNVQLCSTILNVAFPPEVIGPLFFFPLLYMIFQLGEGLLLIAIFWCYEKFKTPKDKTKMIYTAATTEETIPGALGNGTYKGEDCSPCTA
The data set is described as follows: Inhibition of FITC-labeled HBV Pre-S1 polypeptide binding to human NTCP expressed in HepG2 cells after 2 to 3 hrs by confocal microscopic analysis. In kind it is cell-based. The settings on record: time 2-3 hrs.

Data set [9] concerns HepG2. The data set can be described thus: Cytotoxicity against human HepG2 cells expressing NTCP assessed as reduction in cell viability at 10 uM after 48 hrs by alamar blue assay. In kind it is cell-based. The following applies: hepg2, 48 h.
The target in data set [10] is T1, Hepatic sodium/bile acid cotransporter. The data set is described as follows: Inhibition of human NTCP-mediated [3H]-Estrone sulfate uptake expressed in human HepG2 cells at 2 uM. In kind it is cell-based. The following applies: hepg2, 2 µM.
The target of data set [11] is T2, Solute carrier organic anion transporter family member 1B1 (Homo sapiens, UniProt Q9Y6L6).
T2 sequence (Q9Y6L6 whole entry): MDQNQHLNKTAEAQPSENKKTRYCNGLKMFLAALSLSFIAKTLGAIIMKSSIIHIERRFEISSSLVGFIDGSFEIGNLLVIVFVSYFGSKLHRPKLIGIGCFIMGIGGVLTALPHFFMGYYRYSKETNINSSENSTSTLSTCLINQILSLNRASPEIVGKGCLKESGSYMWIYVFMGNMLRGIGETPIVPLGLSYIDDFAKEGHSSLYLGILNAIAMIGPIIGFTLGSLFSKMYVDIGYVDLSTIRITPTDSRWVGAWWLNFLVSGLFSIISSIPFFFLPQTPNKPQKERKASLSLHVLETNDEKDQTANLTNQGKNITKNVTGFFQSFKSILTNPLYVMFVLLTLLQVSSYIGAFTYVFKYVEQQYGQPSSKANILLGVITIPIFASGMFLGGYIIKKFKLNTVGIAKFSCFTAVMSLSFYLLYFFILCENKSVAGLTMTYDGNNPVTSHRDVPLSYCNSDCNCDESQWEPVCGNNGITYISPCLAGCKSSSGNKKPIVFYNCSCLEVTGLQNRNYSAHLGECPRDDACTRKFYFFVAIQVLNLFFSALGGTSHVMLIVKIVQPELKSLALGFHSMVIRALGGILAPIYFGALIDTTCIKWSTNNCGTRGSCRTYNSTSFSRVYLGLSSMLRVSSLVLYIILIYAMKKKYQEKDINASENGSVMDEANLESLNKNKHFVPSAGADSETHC
The data set is described as follows: Inhibition of human OATP1B1-mediated [3H]-Estrone sulfate uptake expressed in human HepG2 cells at 2 uM. In kind it is cell-based. The settings on record: hepg2, 2 µM.

The target in data set [12] is T1, Hepatic sodium/bile acid cotransporter. The data set is described as follows: Inhibition of human NTCP-mediated NQL-064 uptake expressed in human HepG2 cells incubated for 30 mins. In kind it is cell-based. The following applies: hepg2, 0.5 h.
Data set [13] concerns Hepatitis B virus. The data set is described as follows: Antiviral activity against HBV infected in human HepG2-NTCP cells assessed as reduction in HBeAg secretion preincubated for 2 hrs followed by viral infection by ELISA. In kind it is functional, organism-based.
For data set [14], the target named is T1, Hepatic sodium/bile acid cotransporter. The data set is described as follows: Inhibition of human NTCP-mediated [3H]-TCA uptake expressed in human HepG2 cells. In kind it is cell-based. The settings on record: for inhibition (INH): human, hepg2.
Data set [15] relates to HepG2. The data set is described as follows: Inhibition of monkey NTCP-mediated [3H]-TCA uptake expressed in human HepG2 cells. In kind it is cell-based. The settings on record: Macaca mulatta.
Data set [16] addresses T3, Hepatic sodium/bile acid cotransporter (Mus musculus, UniProt O08705).
T3 sequence (O08705 whole entry): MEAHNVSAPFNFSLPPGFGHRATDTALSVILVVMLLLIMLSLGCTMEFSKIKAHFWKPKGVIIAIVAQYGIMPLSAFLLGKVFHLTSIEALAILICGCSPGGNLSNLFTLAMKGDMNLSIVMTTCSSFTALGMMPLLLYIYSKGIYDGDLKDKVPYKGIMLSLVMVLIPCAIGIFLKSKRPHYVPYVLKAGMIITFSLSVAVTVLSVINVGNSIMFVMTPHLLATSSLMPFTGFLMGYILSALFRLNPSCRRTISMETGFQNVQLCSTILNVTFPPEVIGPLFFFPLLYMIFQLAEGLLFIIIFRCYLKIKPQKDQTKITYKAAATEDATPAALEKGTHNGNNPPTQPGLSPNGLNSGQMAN
The data set can be described thus: Inhibition of mouse NTCP-mediated [3H]-TCA uptake expressed in human HepG2 cells. In kind it is cell-based.

In data set [17] the test system is HepG2. The data set can be described thus: Inhibition of tree shrew NTCP-mediated [3H]-TCA uptake expressed in human HepG2 cells. The settings on record: Scandentia. In kind it is cell-based.

By IC50 is commonly meant the midpoint of a concentration-inhibition curve. On to `C[C@H](CCC(=O)NCCS(=O)(=O)O)[C@H]1CC[C@H]2[C@@H]3[C@@H](O)C[C@@H]4C[C@H](NC(=O)CCCC(=O)N[C@@H]5CC[C@@]6(C)[C@@H](C5)C[C@H](O)[C@@H]5[C@@H]6CC[C@]6(C)[C@@H]([C@H](C)CCC(=O)NCCS(=O)(=O)O)CC[C@@H]56)CC[C@]4(C)[C@H]3CC[C@]12C`, for which the IC50 with Hepatitis B virus [1] stood at 41 nM; in [14], 58.3 nM. Also, the outcome in the data set on Hepatitis B virus [2], in the data set with Hepatitis B virus [3], in the data set with Hepatitis B virus [4], in the data set with Hepatitis B virus [5] and with Hepatitis B virus [6] was Active. The Activity in the data set with Hepatitis delta virus was 2.5%; in the data set on HepG2 [9], “Non-Toxic”. Further, the result with Hepatitis B virus [7] and in the data set with Hepatitis B virus [13] was inactive. Further, the “inhibition (INH)” value is “Active” in data set [8]; “Active” in [10]; “Not Active” in data set [11]; “Active” in data set [12]; “Active” in data set [14]; “Not Active” in [16]. For the same molecule, the inhibition entry with HepG2 [15] and in the data set with HepG2 [17] was “inactive” each time.

With `C[C@H](CCC(=O)O[C@@H]1CC[C@@]2(C)[C@@H](C1)C[C@H](O)[C@@H]1[C@@H]2CC[C@]2(C)[C@@H]([C@H](C)CCC(=O)NCCS(=O)(=O)O)CC[C@@H]12)[C@H]1CC[C@H]2[C@@H]3[C@@H](O)C[C@@H]4C[C@H](O)CC[C@]4(C)[C@H]3CC[C@]12C`, in the data set with Hepatitis B virus [1], the concentration for half-maximal inhibition (IC50) stood at 58 nM. Also, the outcome in the data set with Hepatitis B virus [2], in the data set with Hepatitis B virus [3], in the data set on Hepatitis B virus [4], with Hepatitis B virus [5], with Hepatitis B virus [6] and in the data set on Hepatitis B virus [13] was Active. Further, the Activity is recorded as 1.7% in the data set with Hepatitis delta virus and “Non-Toxic” with HepG2 [9]. Moreover, the outcome in the data set on Hepatitis B virus [7] was inactive. The “inhibition (INH)” value in data set [8] is listed as “Active”; in data set [10] it was “Active”; in [11], “Not Active”; in data set [12] it was “Active”; in data set [14] it was “Active”; in data set [16], “Active”. Also, the inhibition result in the data set on HepG2 [15] and with HepG2 [17] was “Active” throughout.
